Patent US20070093448A1, “Complexes that consist of vitamin D compounds or analogs thereof with a 5Z,7E,10(19)-triene system and methylated derivatives of beta-cyclodextrin” (priority 2005, published 2007)
Marks after values point to notes of the source that are not given here. Values belong to the molecule of their own block, whether it stands above or below them.

Legend:
[1] = Isomerization to the previtamin in the complexing with cyclodextrins (HPLC); type: physicochemical
Description: It is stirred for 2 hours at 22° C. and for 2 hours at 0° C. The solid is suctioned off and washed with 5 ml of cold water. After drying, 1.73 g (90% of theory) is obtained as a white solid. After HPLC (Stat. phase Chiracel JHRH 150×4.6 mm ID, detection 244 nm, eluant water/acetonitrile, flow: 1 ml/minute, gradient t0=70+30 v/v, linear increase of the gradient over 10 minutes t10 min to 60+40 v/v, isocratic t10 min-30 min 60+40 v/v), the solid, in addition to ergocalciferol (tRet.=26 minutes), contains 24% of the previtamin form (tRet.=23 minutes).
10 mg (0.024 mmol, MW 416.65) of calcitriol (dissolved in 100 μl of ethanol) is added in drops to the clear solution over 10 minutes. It is stirred for 2 hours at 22° C. and for 2 hours at 0-3° C., the solid is filtered off, and it is washed 2 times with 100 μl each of cold water. After drying at 20° C. and 0.5 mbar (24 hours), 26.6 mg of calcitriol-β-CD complex (71.5% of theory) is obtained. After the solid is dissolved in methanol and after an HPLC study (Stat. Phase Chiracel JHRH 150×4.6 mm ID, detection 244 nm, eluant water/acetonitrile, flow: 1 ml/minute, gradient t0=70+30 v/v, linear increase of the gradient over 10 minutes t10 min to 60+40 v/v, isocratic t10 min-30 min 60+40 v/v), the solid contains 23% of the previtamin form (tRet.=12 minutes) in addition to calcitriol (tRet.=17 minutes).
At 25° C., 100 mg (0.21 mmol) of (thiazol-2-yl)-26,27-dinor-9,10-secocholesta-5,7,10(19)-triene-1,3,25-triol (dissolved in 0.5 ml of ethanol) is added. It is stirred for 2 hours at room temperature, then for 2 hours at 0° C. The solid is filtered off, washed with 1 ml of cold water and dried. 290 mg (85% of theory) of solid is obtained. The content of the solid in the previtamin (compound 2) is 20% (HPLC, Stat. Phase Chiracel JHRH 150×4.6 mm ID, detection 244 nm, eluant water/acetonitrile, flow: 1 ml/minute, gradient to =70+30 v/v, linear increase of the gradient over 10 minutes t10 min to 60+40 v/v, isocratic t10 min-30 min 60+40 v/v, tRef. Compound 2: 11.65 minutes, tRef. Compound 1: 18.19 minutes). The sample preparation is carried out by dissolving the complex in 100% methanol.
For analytical study, the complexes can be dissolved in methanol or DMF and can be used in these solutions for the HPLC analysis (see 2.1). The content of the complexes that are obtained can be determined in comparison to the pure substance.

[2] = Stability of the DIMEB complex from Example 3 a) 1 and the non-complexed active ingredient; type: physicochemical
Description: In Table 4 below, the stabilities of the DIMEB complex from Example 3 a) 1. and the non-complexed active ingredient are compiled: […]

[3] = Storage of compound 1 at room temperature; type: physicochemical; conditions: after four months at room temperature
[4] = cited from earlier work
[5] = cited from earlier work; remark: listed apart in the source
[6] = Cyclodextrin solubility in water; type: physicochemical
[7] = Exp. 10: 15 d/40° C. aqueous, 80 μg of DIMEB complex per ml, compound 1 20 μg per ml
[8] = Exp. 11: 15 d/60° C. aqueous, 80 μg of DIMEB complex per ml, compound 1 20 μg per ml
[9] = Exp. 12: 15 d/80° C. aqueous, 80 μg of DIMEB complex per ml, compound 1 20 μg per ml
[10] = Exp. 13: 30 d/40° C. aqueous, 80 μg of DIMEB complex per ml, compound 1 20 μg per ml
[11] = Exp. 14: 30 d/60° C. aqueous, 80 μg of DIMEB complex per ml, compound 1 20 μg per ml

Compound: COC[C@H]1O[C@@H]2O[C@H]3[C@H](OC)[C@@H](OC)[C@@H](O[C@H]4[C@H](OC)[C@@H](OC)[C@@H](O[C@H]5[C@H](OC)[C@@H](OC)[C@@H](O[C@H]6[C@H](OC)[C@@H](OC)[C@@H](O[C@H]7[C@H](OC)[C@@H](OC)[C@@H](O[C@H]8[C@H](OC)[C@@H](OC)[C@@H](O[C@H]1[C@H](OC)[C@H]2OC)O[C@@H]8COC)O[C@@H]7COC)O[C@@H]6COC)O[C@@H]5COC)O[C@@H]4COC)O[C@@H]3COC [TRIMEB]
- CD-Water Solubility (g/100 ml), (25° C.) [6]: 200 g/100 ml

Compound: OC[C@H]1O[C@@H]2O[C@H]3[C@H](O)[C@@H](O)[C@@H](O[C@H]4[C@H](O)[C@@H](O)[C@@H](O[C@H]5[C@H](O)[C@@H](O)[C@@H](O[C@H]6[C@H](O)[C@@H](O)[C@@H](O[C@H]7[C@H](O)[C@@H](O)[C@@H](O[C@H]8[C@H](O)[C@@H](O)[C@@H](O[C@H]9[C@H](O)[C@@H](O)[C@@H](O[C@H]1[C@H](O)[C@H]2O)O[C@@H]9CO)O[C@@H]8CO)O[C@@H]7CO)O[C@@H]6CO)O[C@@H]5CO)O[C@@H]4CO)O[C@@H]3CO [γ-Cyclodextrin, γ-cyclodextrin]
- Cyclodextrin Solubility in Water (20° C.) ([5]; 20° C., source Szejtly 1988): 23.3 g/100 ml

Second part, led by results:

- % Previtamin (in Solution) ([1]; Table 1, without cyclodextrin): 0.3%
Compound: C=C1/C(=C\C=C2/CCC[C@]3(C)[C@@H]([C@H](C)CCCC(C)(C)O)CC[C@@H]23)C[C@@H](O)C[C@@H]1O [Calcitriol, (5Z,7E)-(1S,3R)-9,10-secocholesta-5,7,10(19)-triene-1,3,25-triol]
- previtamin formation / isomerization (in words) [1]: do not show any significant previtamin formation

- By-Products ([2]; Exp. 2: 30 d 40° C.): 3.08%
- Purity ([2]; Exp. 2: 30 d 40° C.): 96.08%
- By-Products ([2]; Exp. 3: 3 d/80° C./75% rel F.): 77.45%
- Purity ([2]; Exp. 3: 3 d/80° C./75% rel F.): 22.55%
- By-Products ([2]; Exp. 4: 7 d/80° C./75% rel F.): 95.34%
- Purity ([2]; Exp. 4: 7 d/80° C./75% rel F.): 4.66%
- By-Products ([2]; Exp. 5: 15 d/40° C./75% rel F.): 2.9%
- Purity ([2]; Exp. 5: 15 d/40° C./75% rel F.): 96.61%
- By-Products ([2]; Exp. 6: 15 d/60° C./75% rel F.): 2.96%
- Purity ([2]; Exp. 6: 15 d/60° C./75% rel F.): 96.34%
- By-Products ([2]; Exp. 7: 15 d/80° C./75% rel F.): 100%
- Purity ([2]; Exp. 7: 15 d/80° C./75% rel F.): 0%
- By-Products ([2]; Exp. 8: 30 d/40° C./75% rel F.): 3.00%
- Purity ([2]; Exp. 8: 30 d/40° C./75% rel F.): 96.7%
- By-Products ([2]; Exp. 9: 30 d/60° C./75% rel F.): 2.98%
- Purity ([2]; Exp. 9: 30 d/60° C./75% rel F.): 96.23%
- By-Products [2, 7]: 2.92** %
- Purity [2, 7]: 92.78%
- By-Products [2, 8]: 18.69** %
- Purity [2, 8]: 77.12%
- By-Products [2, 9]: 96.72** %
- Purity [2, 9]: 3.28%
- By-Products [2, 10]: 3.20** %
- Purity [2, 10]: 91.96%
- By-Products [2, 11]: 37.26** %
- Purity [2, 11]: 59.76%
- By-Products ([2]; Start): 3%
- Purity ([2]; Start): 96.12%
- previtamin content [3]: about 2%
- content ([3]; in comparison to fresh samples or samples stored under inert conditions): 60%
- % Previtamin (in Solution) ([1]; Table 2, compound 1 without CD): 0.2 (in %
- % Previtamin ([1]; Table 3, compound 1 without CD): 0.3%
Compound: C=C1/C(=C\C=C2/CCC[C@]3(C)[C@@H]([C@H](C)CCC[C@H](O)c4nccs4)CC[C@@H]23)C[C@@H](O)C[C@@H]1O [Compound 1, (thiazol-2-yl)-26,27-dinor-9,10-secocholesta-5,7,10(19)-triene-1,3,25-triol]

- CD-Water Solubility (g/100 ml), (25° C.) [6]: 25 g/100 ml
Compound: COC[C@H]1O[C@@H]2O[C@H]3[C@H](O)[C@@H](OC)[C@@H](O[C@H]4[C@H](O)[C@@H](OC)[C@@H](O[C@H]5[C@H](O)[C@@H](OC)[C@@H](O[C@H]6[C@H](O)[C@@H](OC)[C@@H](O[C@H]7[C@H](O)[C@@H](OC)[C@@H](O[C@H]8[C@H](O)[C@@H](OC)[C@@H](O[C@H]1[C@H](O)[C@H]2OC)O[C@@H]8COC)O[C@@H]7COC)O[C@@H]6COC)O[C@@H]5COC)O[C@@H]4COC)O[C@@H]3COC [DIMEB, Heptakis-(2,6-di-O-methyl)-β-cyclodextrin]
- effects in intravenous administration [4]: hemolytic effects
- solubility of the DIMEB ([5]; Saenger et al. 2002, Uekama, Irie 1987): 60 g/100 ml of water
- solubility in water ([5]; at 20° C., Saenger et al. 2002): > 50 g/100 ml of water
- solubility in water while being heated ([5]; while being heated, Saenger et al. 2002): < 1 g/100 ml

- % Previtamin (in Solution) ([1]; Table 1, without cyclodextrin): 0.2%
Compound: C=C1CC[C@H](O)C/C1=C/C=C1\CCC[C@]2(C)[C@@H]([C@H](C)/C=C/[C@H](C)C(C)C)CC[C@@H]12 [Ergocalciferol, (5Z,7E,22E)-(3S)-9,10-secoergosta-5,7,10(19),22-tetraen-3-ol]
- previtamin formation / isomerization (in words) [1]: do not show any significant previtamin formation
